“And” between values parts separate entries of the source, which are not always exact repeats. Equal values may be shown once. Read-outs that look alike come from different tables or passages of the source.
Experiments:
TSST-1 = format: cell-based, Staphylococcus aureus
S. aureus (MN8) = format: cell-based, Staphylococcus aureus

Molecule: CC1CCC(C(C)C)C(O)C1 (centres unmarked) [Menthol]
- ng TSST-1 per OD Unit (TSST-1; 24 h): 33 ng TSST-1 per OD Unit
- effect on the growth of S. aureus cells (S. aureus (MN8)): minimal, if any, effect
- Optical Density (S. aureus (MN8); 0.1% test compound (in methanol), S. aureus MN8, 24 h, 600 nm): 0.621
- CFU/mL (S. aureus (MN8); 24 h): 6.3E + 08 CFU/mL

Molecule: CC(=O)/C=C/C1=C(C)CCCC1(C)C [Beta-ionone]
- Reduction of Toxin % (TSST-1): 100%
- ng TSST-1 per OD Unit (TSST-1): none
- CFU/mL (S. aureus (MN8)): 1.8E + 08 CFU/mL
- Optical Density (S. aureus (MN8)): 0.688

Molecule: C=CC(C)(O)CCC=C(C)C (centres unmarked) [Linalool]
- Reduction of Toxin % (TSST-1): 88%
- ng TSST-1 per OD Unit (TSST-1): 421 ng TSST-1 per OD Unit
- CFU/mL (S. aureus (MN8)): 2.0E + 09 CFU/mL
- Optical Density (S. aureus (MN8); 0.01% test compound, Table 3): 0.600

Molecule: CC1(O)CCC(C(C)(C)O)CC1 (centres unmarked) [p-menthane-1,8-diol]
- Reduction of Toxin % (TSST-1): 78%
- ng TSST-1 per OD Unit (TSST-1): 792 ng TSST-1 per OD Unit
- CFU/mL (S. aureus (MN8)): 2.0E + 09 CFU/mL
- Optical Density (S. aureus (MN8); 0.7% test compound, Table 3): 0.620

Molecule: myreth-3-myristate [Cetiol]
- ng TSST-1 per CFU (TSST-1): 371 ng TSST-1 per CFU and 196 ng TSST-1 per CFU and 200 ng TSST-1 per CFU
- ng TSST-1 per mL (TSST-1): 1556 ng TSST-1 per mL and 1147 ng TSST-1 per mL and 989 ng TSST-1 per mL
- CFU/mL × 10^8 (S. aureus (MN8)): 4.2 and 5.9 and 5.0

Molecule: CC(C)=CCC/C(C)=C/CO [Geraniol]
- Reduction of Toxin % (TSST-1): 99%
- ng TSST-1 per OD Unit (TSST-1): 26 ng TSST-1 per OD Unit
- CFU/mL (S. aureus (MN8)): 3.2E + 08 CFU/mL
- Optical Density (S. aureus (MN8); 0.01% test compound, Table 3): 0.0569

From patent publication US6596290B2 (priority 2001, dated 2003)
